The text below walks through data of article PMC5036617 (Toxicological Sciences, 2016).

Read-outs that look alike come from different tables or passages of the source.

Data set [1] has as its system HepG2 cells. The data set is described as follows: Cellular ATP content of HepG2 cells in glucose or galactose medium (ATP bioluminescent assay). The data set is classed as cell-based. Conditions: 2 h; for EC50ATPglu/EC50ATPgal: ratio ≥ 2 identifies a mitochondrial liability; for EC50: Homo sapiens, concentration reducing cellular ATP content by 50%. How it is done:
Metabolic switching of cells was performed based on work previously described by ([[…] et al., 2015]). Briefly, 24 h prior to metabolic switch, HepG2 cells were collected by trypsinization and seeded on a collagen-coated flat-bottomed 96-well plate (20 000 cells/50 μl/well) and incubated (37°C, 5% CO2) overnight. […] Flutamide, 2-hydroxyflutamide and bicalutamide stock solutions were prepared in DMSO and diluted further in the appropriate medium. Compounds (50 μl) were then added to each well and cells were incubated for 2 h (37 °C, 5% CO2). All assays used ≤ 0.5% DMSO as a vehicle control. […] LDH content of the cells and supernatant was assessed using a cytotoxicity detection kit according to the manufacturer's instructions. ATP content was assessed using an ATP bioluminescent assay according to the manufacturer's instructions. Briefly, 10 μl of cell lysate or ATP standard curve solutions were added to a white-walled 96-well plate before addition of 40 μl ATP assay mix. Protein content of all wells was then assessed using a BCA assay applied to 10 μl of cell lysate and standards. LDH (490 nm), BCA (570 nm), and ATP assay luminescence were then measured using a plate reader (Varioskan, Thermo Scientific). ATP content readings were normalized to protein content. Experiments were conducted in a minimum of triplicate to ensure the reliability of single values. EC50 data were determined by nonlinear regression analysis using GraphPad Prism 5.0. Normality was assessed using a Shapiro-Wilk statistical test. Statistical significance was determined by an unpaired t-test for parametric data and a Mann-Whitney U test for non-parametric data using StatsDirect 2.7.9. P < .05 was taken as showing a significant difference.

Data set [2] concerns HepG2 cells. The data set is described as follows: Mitochondrial stress test, OCR analysis (Seahorse XFe96). The data set is classed as cell-based. The note with it: vs vehicle control. How it is done: HepG2 cells were collected by trypsinization and seeded on a collagen-coated XF 96-well cell culture microplate (25 000 cells/100 µl medium/well) and incubated overnight in glucose medium (37 °C, 5% CO2). All assays used ≤ 0.5% DMSO as a vehicle control. Cells were incubated for 1 h (37°C, 0% CO2) before culture medium was replaced by 175 µl of unbuffered Seahorse XF Base medium supplemented with glucose (25 mM), L-glutamine (2 mM), sodium pyruvate (1 mM), pre-warmed to 37 °C (pH 7.4). Prior to measurement of OCR, the Seahorse XFe96 instrument gently mixed the assay medium in each well for 10 min to enable the oxygen partial pressure to reach equilibrium. […] There were 9 OCR measurement cycles following compound injection and each measurement cycle consisted of a 3 min mix and 3 min measure. […] After stress test compound injections there were 3 measurement cycles before the injection of the next stress test compound. This enabled the calculation of basal respiration (OCR prior to oligomycin injection—non-mitochondrial OCR), proton leak (OCR after oligomycin injection—non-mitochondrial OCR), ATP-linked OCR (basal respiration—proton leak—non-mitochondrial OCR), maximal respiration (first injection after FCCP injection—non-mitochondrial OCR) and spare respiratory capacity (maximal respiration—basal respiration) (Figure 2).  FIG. 2 Representative control mitochondrial stress test trace. Mitochondrial stress test assays consisted of a series of compound injections into the cell culture microplate. […] Remaining injections consisted of oligomycin (ATP synthase inhibitor), FCCP (OXPHOS uncoupler), and rotenone/antimycin A (complex I and III inhibitors, respectively) with each followed by 3 measurement cycles. This series of manipulations enabled the calculation of parameters: basal, ATP-linked, maximum, and non-mitochondrial OCR, as well as proton leak. Each measurement cycle was a total of 6 min. Following completion of OCR assays, medium was removed from all wells and 20 µl of somatic cell ATP releasing agent was added to each well before shaking for 1 min and transfer of 10 µl of lysate to a 96-well plate and performance of a BCA assay according to the manufacturer’s instructions. Protein content per well was used to normalize OCR.

The conditions of data set [3]: cited from earlier work.

For the compound `CC(O)(CS(=O)(=O)c1ccc(F)cc1)C(=O)Nc1ccc(C#N)c(C(F)(F)F)c1` (stereo not shown) [Bicalutamide], the EC50ATPglu/EC50ATPgal in the data set with HepG2 cells [1] is 1.44 (0.22). Further, in the data set with HepG2 cells [1] (listed as bicalutamide), the EC50ATPglu/EC50ATPgal is on record as at most 2. In the data set with HepG2 cells [1] (up to 300 µM), the “decrease in ATP content in galactose medium compared with glucose medium” value is “this was not the case for bicalutamide”. Moreover, in the data set on HepG2 cells [1] (galactose medium, read-out: EC50ATP (μM) Galactose), the EC50 stood at 103 µM. In addition, the EC50 in the data set with HepG2 cells [1] (glucose medium, read-out: EC50ATP (μM) Glucose) is 148 µM. In the data set on HepG2 cells [2] (glucose medium, 7.8–500 µM), the basal respiration entry is “only caused a significant decrease in maximal respiration” and the maximal respiration result is reported as “significant decrease”. In addition, in the data set with HepG2 cells [2] (up to 500 µM), the “ATP-linked OCR as a percentage of maximal respiration” value is reported as “not observed”, the “proton leak as a percentage of maximal respiration” value is on record as “not observed” and the “spare respiratory capacity as a percentage of maximal respiration” value is reported as “not observed”.
With `Nc1ccc([N+](=O)[O-])c(C(F)(F)F)c1` [3-trifluoromethyl-4-nitroaniline], in data set [3] (plasma, metabolite after single 250 mg dose of flutamide, ref Schulz et al., 1988, read-out: maximum plasma concentration (Cmax)), the Cmax is 1.31 µM.
As to `C[C@](O)(CS(=O)(=O)c1ccc(F)cc1)C(=O)Nc1ccc(C#N)c(C(F)(F)F)c1` [(R)-bicalutamide], the half-life in data set [3] (single 50 mg dose, ref Cockshott, 2004) is 140 h. Also, the Cmax in data set [3] (single 50 mg dose, ref Cockshott, 2004, read-out: Cmax) was 1.7 µM.

Usually half-life stands for the time needed for the level to fall by half in the phase considered.
